The record followed here is patent US6706706B2, “Non-nucleoside reverse transcriptase inhibitors” (priority 2002, dated 2004).

Where only a bound is given, the exact number is not on record here.

The target of experiment [1] is HIV-1 RT wild-type (WT) (Human immunodeficiency virus type 1 group M subtype B, UniProt P03366). Description: biochemical.
Source text: This activity can be quantitatively measured in a cell-free enzyme assay and is based upon the observation that reverse transcriptase is able to use a synthetic template poly r(C) primed with a biotinylated oligo d(G) to transcribe a radio-labeled DNA strand utilizing 3H-dGTP as a substrate.
The test system of experiment [2] is HIV replication in C8166 cells, virus coding for wild type reverse transcriptase. As to the kind of experiment: microbe, parasite or virus in culture. Format: cell-based, HIV-1. Conditions: Human immunodeficiency virus 1, 72 h, three days, extracellular p24. The method, then:
The compound of the invention was tested for its ability to inhibit HIV replication in cell culture in a 96-well plate assay. Complete RPMI 1640, consisting of RPMI 1640+10% fetal bovine serum, 10 μg/ml gentamycin and 10 μM β-mercaptoethanol was used for dilution of the compound as well as cell growth medium. The T lymphocyte cell line C8166 was infected at a multiplicity of infection of 0.001 with viruses coding for wild type and mutant reverse transcriptase. Cells were then incubated for three days in the presence of serial dilutions of the compound of the invention. The supernatant was pooled from eight replica wells and the concentration of extracellular p24 was determined using a commercially available HIV-1 p24 antigen assay kit (Beckman-Coulter®). The level of inhibition (% inhibition) was calculated with the following equation: [formula]

As a reminder, the IC50 is the concentration that inhibits the measured activity by half. A high value points to weaker potency in that assay. In turn, `CCN1c2ncc(CCOc3ccc(C(=O)O)cc3C(F)(F)F)cc2C(=O)N(C)c2cccnc21` [Entry 1027] came in with an IC50 in experiment [1] of 50 to 100 nM.

One may read the EC50 as the concentration giving half of the maximal effect. In the case of `CCN1c2ncc(CCOc3ccc(C(=O)O)cc3C)cc2C(=O)Nc2c(C)ccnc21` [Entry 1018], the EC50 in experiment [2] is less than 50 nM. Further, in experiment [1], the IC50 was less than 50 nM.

Molecule `CCN1c2ncc(CCOc3ccc(C(=O)O)c(C)c3C)cc2C(=O)N(C)c2cccnc21` [Entry 1001] registered an EC50 in experiment [2] of less than 50 nM. The molecule further had an IC50 in experiment [1] of less than 50 nM.

`CCN1c2ncc(CCOc3ccc(C(=O)OC)cc3Cl)cc2C(=O)N(C)c2cccnc21` [Entry 1032] came in with an IC50 in experiment [1] of less than 50 nM.

`CCN1c2ncccc2NC(=O)c2cc(CCOc3ccc(C(=O)O)cc3C)cnc21` [Entry 1029]: the EC50 in experiment [2] was less than 50 nM. In experiment [1], this molecule returned an IC50 of less than 50 nM.

As for `CCN1c2ncc(CCOc3ccc(C(=O)O)c(Cl)c3)cc2C(=O)N(C)c2cccnc21` [Entry 1026], the IC50 in experiment [1] was 50 to 100 nM.

In experiment [1], `CCN1c2ncc(CCOc3ccc(C(=O)O)cc3C)cc2C(=O)N(C)c2ccc(Cl)nc21` [Entry 1015] displayed an IC50 of less than 50 nM.

In turn, `CCc1cc(C(=O)OC)ccc1OCCc1cnc2c(c1)C(=O)N(C)c1cccnc1N2CC` [Entry 1031] came in with an IC50 in experiment [1] of less than 50 nM.

With `CCN1c2ncc(CCOc3ccc(C(=O)O)cc3C)cc2C(=O)N(C)c2ccc(OC)nc21` [Entry 1019], the IC50 in experiment [1] was less than 50 nM.

Take `CCN1c2ncc(CCOc3ccc(C(=O)O)c(F)c3)cc2C(=O)N(C)c2cccnc21` [Entry 1025]: the IC50 in experiment [1] was 50 to 100 nM.

Regarding `CCN1c2ncc(CCOc3ccc(C(=O)O)c(O)c3C)cc2C(=O)N(C)c2cccnc21` [Entry 1004], the EC50 in experiment [2] is less than 50 nM. In addition, the IC50 in experiment [1] was less than 50 nM.

In experiment [1], `CCOc1ccc2c(n1)N(CC)c1ncc(CCOc3ccc(C(=O)O)cc3C)cc1C(=O)N2C` [Entry 1021] showed an IC50 of less than 50 nM.

As to `CCN1c2ncc(CCOc3ccc(C(=O)O)cc3C)cc2C(=O)N(C)c2ccc(N(C)C)nc21` [Entry 1028], the IC50 in experiment [1] was less than 50 nM.

For the molecule `CCN1c2ncc(CCOc3ccc(CCC(=O)O)cc3C)cc2C(=O)N(C)c2ccc(Cl)nc21` [Entry 1007], in experiment [2], the EC50 is less than 50 nM. The IC50 in experiment [1] was less than 50 nM.

The molecule `CCN1c2ncc(CCOc3ccc(C(=O)O)cc3C)cc2C(=O)N(C)c2cccnc21` [Entry 1002] yielded an EC50 in experiment [2] of less than 50 nM. In experiment [1], the IC50 was less than 50 nM.

For `CCN1c2ncc(CCOc3ccc(C(=O)O)c(N)c3)cc2C(=O)N(C)c2cccnc21` [Entry 1024], the half-inhibitory concentration (IC50) in experiment [1] is less than 50 nM.

On to `CCN1c2ncc(CCOc3ccc(CC(=O)O)cc3Br)cc2C(=O)N(C)c2cccnc21` [Entry 1012], for which, in experiment [1], the IC50 is less than 50 nM.

For `CCN1c2ncc(CCOc3ccc(C=CC(=O)O)cc3C)cc2C(=O)N(C)c2cccnc21` [Entry 1010], in experiment [2], the EC50 is less than 50 nM. The IC50 in experiment [1] was less than 50 nM.

In experiment [1], `CCN1c2ncc(CCOc3ccc(C(=O)O)cc3C)cc2C(=O)N(C)c2ccc(C)nc21` [Entry 1017] displayed an IC50 of less than 50 nM.

`CCN1c2ncc(CCOc3ccc(C(=O)O)cc3[N+](=O)[O-])cc2C(=O)N(C)c2cccnc21` [Entry 1022] gave an EC50 in experiment [2] of 50 to 100 nM. This molecule displayed an IC50 in experiment [1] of 50 to 100 nM.

In the case of `CCN1c2ncc(CCOc3ccc(C(C)C(=O)O)cc3C)cc2C(=O)N(C)c2cccnc21` (stereo not drawn) [Entry 1006], in experiment [1], the IC50 was less than 50 nM.

`CCN1c2ncc(CCOc3ccc(CCC(=O)O)cc3C)cc2C(=O)N(C)c2cccnc21` [Entry 1008] yielded an EC50 in experiment [2] of less than 50 nM. This molecule yielded an IC50 in experiment [1] of less than 50 nM.

On to `CCc1cc(C(=O)O)ccc1OCCc1cnc2c(c1)C(=O)N(C)c1cccnc1N2CC` [Entry 1003], for which, in experiment [1], the IC50 is less than 50 nM.

Molecule `CCN1c2ncc(CCOc3ccc(C(=O)O)cc3Cl)cc2C(=O)N(C)c2cccnc21` [Entry 1023] yielded an EC50 in experiment [2] of less than 50 nM. Besides, in experiment [1], the IC50 is 50 to 100 nM.

`CCOc1ccc2c(n1)N(CC)c1ncc(CCOc3ccc(C(=O)OC)cc3C)cc1C(=O)N2C` [Entry 1034] yielded an IC50 in experiment [1] of less than 50 nM.

The molecule `CCN1c2ncc(CCOc3ccc(CC(=O)O)c(C)c3C)cc2C(=O)N(C)c2cccnc21` [Entry 1013] gave an IC50 in experiment [1] of less than 50 nM.

In the case of `CCN1c2ncc(CCOc3ccc(C(=O)O)cc3C)cc2C(=O)Nc2c(C)cc(Cl)nc21` [Entry 1016], in experiment [1], the half-maximal inhibitory concentration (IC50) is less than 50 nM.

Take `CCN1c2ncc(CCOc3ccc(C(=O)OC)cc3C)cc2C(=O)N(C)c2cccnc21` [Entry 1030]: the EC50 in experiment [2] was less than 50 nM. Further, the IC50 in experiment [1] is less than 50 nM.

With `CCN1c2ncc(CCOc3ccc(C(=O)OC)cc3C(F)(F)F)cc2C(=O)N(C)c2cccnc21` [Entry 1033], in experiment [1], the IC50 is less than 50 nM.

In experiment [2], `CCN1c2ncc(CCOc3ccc(CC(=O)O)cc3C)cc2C(=O)N(C)c2cccnc21` [Entry 1014] showed an EC50 of less than 50 nM. The same molecule had an IC50 in experiment [1] of less than 50 nM.

With `CCN1c2ncc(CCOc3ccc(C(=O)O)cc3C)cc2C(=O)N(C)c2ccc(F)nc21` [Entry 1020], the IC50 in experiment [1] was less than 50 nM.

Regarding `CCN1c2ncc(CCOc3ccc(C(=O)O)cc3Br)cc2C(=O)N(C)c2cccnc21` [Entry 1005], in experiment [1], the IC50 was less than 50 nM.

Molecule `CCN1c2ncc(CCOc3ccc(C(=O)OC)c(F)c3)cc2C(=O)N(C)c2cccnc21` [Entry 1035] showed an IC50 in experiment [1] of less than 50 nM.

In the case of `CCN1c2ncc(CCOc3ccc(C=CC(=O)O)cc3C)cc2C(=O)N(C)c2ccc(Cl)nc21` [Entry 1009], the EC50 in experiment [2] is less than 50 nM. Besides, in experiment [1], the IC50 is less than 50 nM.

The molecule `CCN1c2ncc(CCOc3ccc(CC(=O)O)cc3Cl)cc2C(=O)N(C)c2cccnc21` [Entry 1011] gave an IC50 in experiment [1] of less than 50 nM.
